Data published in PMC10965189, “Phytochemical investigation on the aerial parts of Veratrum versicolor f. viride Nakai and their biological activities” (Turkish Journal of Chemistry, 2023).
Like-named read-outs stand apart in the source and are kept apart here.

Tests used:
[1] = biological target: T1, PPE (porcine pancreas elastase) (Sus scrofa, UniProt P00772); assay: Elastase inhibition assay; format: biochemical
T1 construct: from tissue; host or cells: porcine pancreas
Method: The reaction was carried out in a 50 mM Tris-HCl buffer (pH 8.5) containing 1 mg/mL N-succinyl-(Ala)3-p-nitroanilide and 0.6 U/mL PPE (porcine pancreas elastase). The test sample was added to the reaction mixture, and elastase inhibition was incubated at 25 °C for 10 min. The change in absorbance was measured at 405 nm using an ELISA reader. Ursolic acid was used as a positive control. The inhibitory activity of the sample was expressed as the concentration that inhibits 50% of the enzyme activity (IC50).

mushroom tyrosinase = assay: Tyrosinase inhibition assay; format: biochemical; settings: L-tyrosine, 37 °C 20 min, three experiments, read-out: Tyrosinase inhibitory activity IC50
Method: The reaction was carried out in a 0.1 M potassium phosphate buffer (pH 6.5) containing 1.5 mM L-tyrosine and 1250 unit/mL mushroom tyrosinase and the reaction mixture was incubated at 37 °C for 20 min. The test samples were assayed for tyrosinase inhibition by measuring its effect on tyrosinase activity using an ELISA reader at 490 nm. Arbutin was used as a positive control. The inhibitory activity of the sample was expressed as the concentration that inhibits 50% of the enzyme activity (IC50).

[2] = system: B16F10 mouse melanoma cells; assay: Measurement of relative melanin contents in α-MSH-stimulated cells; format: cell-based; settings: for activity at 25 µM / activity at 50 µM / activity at 100 µM / inhibition at 100 µM: Mus musculus, B16-F10; for activity at 25 µM / activity at 50 µM / activity at 100 µM: 100 nM α-MSH, 72 h; for activity at 100 µM / effect on melanin content compared to arbutin: 100 μM; for effect on melanin content compared to arbutin: arbutin 400 μM
Method: B16F10 mouse melanoma cells were cultured in DMEM medium containing 10% FBS and 1% penicillin-streptomycin in a 37 °C incubator with 5% CO2. The cells were seeded in 100-mm tissue culture dishes to be used for subsequent experiments.
B16F10 cells (1 × 10^5/well) were seeded in 6 well plates for 24 h. The cells were then incubated in the presence of 100 nM α-MSH, and treated with various concentrations (25, 50, and 100 μM) of sample for 72 h. After being washed twice with PBS, the cells were dissolved of 1 N NaOH and 10% DMSO, incubated at 60 °C for 1 h, and mixed to solubilize the melanin. Relative melanin content was determined with an ELISA reader by absorbance at 405 nm.

[3] = system: B16F10 mouse melanoma cells; assay: as above; format: cell-based
[4] = porcine pancreas elastase, N-succinyl-(Ala)3-p-nitroanilide, 25 °C 10 min, three experiments, read-out: Elastase inhibitory activity IC50
[5] = at a concentration of 100 μM, read-out: inhibition of melanogenesis
[6] = in the range of 50 ~ 100 μM, α-MSH-stimulated, read-out: inhibition percentage of melanin production

T1 sequence (P00772 27-266): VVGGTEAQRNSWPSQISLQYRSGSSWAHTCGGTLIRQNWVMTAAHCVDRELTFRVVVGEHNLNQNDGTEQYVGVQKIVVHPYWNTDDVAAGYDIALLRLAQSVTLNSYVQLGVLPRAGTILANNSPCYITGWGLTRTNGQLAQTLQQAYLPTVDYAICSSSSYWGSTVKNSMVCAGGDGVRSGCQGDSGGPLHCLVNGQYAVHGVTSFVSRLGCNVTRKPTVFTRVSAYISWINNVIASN

SMILES: OC[C@H]1O[C@@H](Oc2cc(O)cc(/C=C/c3ccc(O)cc3)c2)[C@H](O)[C@@H](O)[C@@H]1O [Compound 2, trans-Piceid]
- IC50 [1, 4]: > 1000 µM
- IC50 (mushroom tyrosinase): 51.2 ± 5.5 µM
- activity at 25 µM [2]: 136 ± 3.36%
- activity at 50 µM [2]: 132 ± 6.52%
- activity at 100 µM [2]: 116 ± 6.39%

SMILES: COc1cc(C(=O)O)ccc1O [Compound 1, Vanillic acid]
- IC50 [1, 4]: > 1000 µM
- activity at 25 µM [2]: 91.3 ± 4.81%
- activity at 50 µM [2]: 74.78 ± 0.69%
- activity at 100 µM [2]: 64 ± 1.45%

SMILES: COc1cc(-c2cc(=O)c3c(O)cc(O)cc3o2)ccc1O [Compound 8, Chrysoeriol]
- effect on melanin content compared to arbutin ([2]; α-MSH-stimulated): greatly decreased
- activity at 25 µM [2]: 37 ± 4.57%
- activity at 50 µM [2]: 27.3 ± 0.8%
- activity at 100 µM [2]: 23.4 ± 2.19%
- inhibition at 100 µM [2, 5]: 70.4 to 91%
- inhibition at 100 µM [2, 6]: 72.6 to 76.6%

SMILES: C[C@H]1[C@H](C)CC[C@]2(C(=O)O)CC[C@]3(C)C(=CC[C@@H]4[C@@]5(C)CC[C@H](O)C(C)(C)[C@@H]5CC[C@]43C)[C@H]12 [Ursolic acid, reference compound]
- IC50 [1, 4]: 96.9 ± 1.33 µM

SMILES: Oc1cc(O)cc(/C=C/c2ccc(O)cc2O)c1 [Compound 3, Oxyresveratrol]
- IC50 [1]: > 1000 µM
- IC50 (mushroom tyrosinase): 6.42 ± 0.45 µM
- activity at 25 µM [2]: 118 ± 3.73%
- activity at 50 µM [2]: 109 ± 1.96%
- activity at 100 µM [2]: 29.6 ± 2.21%
- inhibition at 100 µM [2, 5]: 70.4 to 91%

SMILES: COc1cc(-c2cc(=O)c3c(O)cc(O)cc3o2)cc(OC)c1O [Compound 7, Tricin]
- IC50 [1, 4]: > 1000 µM
- IC50 (mushroom tyrosinase): > 100 µM
- activity at 25 µM [2]: 65.2 ± 1.18%
- activity at 50 µM [2]: 65.4 ± 1.41%
- activity at 100 µM [2]: 56.4 ± 0.89%

SMILES: O=c1cc(-c2ccc(O)c(O)c2)oc2cc(O)cc(O)c12 [Compound 5, Luteolin]
- IC50 [1, 4]: 292 ± 14.4 µM
- IC50 (mushroom tyrosinase): 37.9 ± 1.04 µM
- effect on melanin content compared to arbutin ([2]; α-MSH-stimulated): greatly decreased
- activity at 25 µM [2]: 18 ± 0.76%
- activity at 50 µM [2]: 16.4 ± 1.65%
- activity at 100 µM [2]: 8.99 ± 0.73%
- inhibition at 100 µM [2, 5]: 70.4 to 91%
- inhibition at 100 µM [2, 6]: 83.5 to 91%

SMILES: OC[C@H]1O[C@@H](Oc2ccc(O)cc2)[C@H](O)[C@@H](O)[C@@H]1O [Arbutin]
- IC50 (mushroom tyrosinase): 474 ± 18.2 µM
- activity at 400 µM ([3]; B16-F10, 100 nM α-MSH, 72 h): 30.7 ± 3.34%
- inhibition at 400 µM ([3]; B16-F10, α-MSH-stimulated, read-out: inhibition rate of melanin production): 69.2%

SMILES: O=c1cc(-c2ccc(O)cc2)oc2cc(O)cc(O)c12 [Compound 6, Apigenin]
- IC50 [1, 4]: > 1000 µM
- IC50 (mushroom tyrosinase): > 100 µM
- activity at 25 µM [2]: 83.6 ± 3.01%
- activity at 50 µM [2]: 63.2 ± 2.11%
- activity at 100 µM [2]: 16.2 ± 1.52%
- inhibition at 100 µM [2, 5]: 70.4 to 91%

SMILES: Oc1ccc(/C=C/c2cc(O)cc(O)c2)cc1 [Compound 4, Resveratrol]
- IC50 [1, 4]: > 1000 µM
- IC50 (mushroom tyrosinase): 19.8 ± 0.77 µM
- effect on melanin content compared to arbutin ([2]; α-MSH-stimulated): greatly decreased
- activity at 25 µM [2]: 82.3 ± 1.18%
- activity at 50 µM [2]: 27.3 ± 5.83%
- activity at 100 µM [2]: 17.3 ± 0.01%
- inhibition at 100 µM [2, 5]: 70.4 to 91%
- inhibition at 100 µM [2, 6]: 72.7 to 82.7%
